# Laboratory results published in patent US20120196899A1, “METHODS AND PRODUCTS FOR TREATING INFLAMMATION” (Rock Creek Pharmaceuticals, Inc., priority 2010, published 2012).
# Where “and” joins values, the source holds several entries; their conditions need not be identical. Equal entries are not always repeated.
# Columns and labels:
# [1] = Necropsy observations and organ weights, day 15; format: in vivo, Sprague-Dawley rats; details: female animals; 0.75 mg/kg; group mean
# Experimental: Body weight and food consumption was measured daily for 14 days. On day 15, urine was collected on all surviving animals. The animals were euthanized and bled via cardiac puncture, and blood was collected for analysis. Tissues were collected, weighed, evaluated for gross abnormalities, and stored in 10% neutral-buffered formalin.
# (§1) On day 15, urine was collected on all surviving animals for urinalysis. The animals were euthanized and bled via cardiac puncture. Blood was collected for hematology, clinical chemistry, and coagulation analysis. Tissues were collected, weighed, and stored in 10% neutral-buffered formalin for possible future analysis.
# [2] = Coagulation parameters (aPTT, PT), day 15; format: in vivo, Sprague-Dawley rats
# Source text: as §1
# Individual values for the coagulation parameters activated partial thromboplastin (aPTT) and prothrombin times (PT) for each animal are listed in Table 34 (normal ranges, Table 30). These are summarized in terms of descriptive statistics in Table 25.
# Aβ production = Aβ production in 7W CHO cells; format: cell-based
# Hematology, day 15 = format: in vivo, Sprague-Dawley rats
# Source text: as §1
# [3] = anatabine 0.1 mg/kg, male rats, individual animals
# [4] = anatabine 0.75 mg/kg, female rats, individual animals
# [5] = anatabine 0.75 mg/kg, male rats, individual animals
# [6] = anatabine 0.75 mg/kg, individual animals C1-C10 (M, F)
smiles,measurement,setting,value
"C1=CCC(c2cccnc2)NC1 (racemic) [Anatabine, 1,2,3,6-tetrahydro-[2,3′]bipyridinyl]",Organ Weight Kidneys,[1],2.30 g
same,Organ Weight Liver,[1],10.42 g
same,Organ Weight Lungs,[1],1.45 g
same,Organ Weight Ovaries/uterus,[1],1.58 g
same,Organ Weight Small intestine,[1],0.75 g
same,Organ Weight Spleen,[1],0.60 g
same,Organ Weight Thymus,[1],0.56 g
same,ACTIVE PARTIAL THROMBOPLASTIN TIME,"[2]; anatabine 0.1 mg/kg, female rats, individual animals",31.1 s and 34.2 s and 26 s and 28.9 s
same,ACTIVE PARTIAL THROMBOPLASTIN TIME,[2]; [3],36.4 s and 28.9 s and 32 s
same,PROTHROMBIN TIME,[2]; [3],13.4 s and 12.5 s
same,ACTIVE PARTIAL THROMBOPLASTIN TIME,[2]; [4],32.5 s and 32.7 s and 38.2 s
same,PROTHROMBIN TIME,[2]; [4],23.8 s
same,ACTIVE PARTIAL THROMBOPLASTIN TIME,[2]; [5],39.7 s and 43.9 s and 50.4 s
same,PROTHROMBIN TIME,[2]; [5],17.9 s
same,ACTIVATED PARTIAL THROMBOPLASTIN TIME,"[2]; female, 0.1 mg/kg, group mean",29.4 s
same,ACTIVATED PARTIAL THROMBOPLASTIN TIME,"[2]; female, 0.75 mg/kg, group mean",33.3 s
same,PROTHROMBIN TIME,"[2]; female, 0.75 mg/kg, group mean",14.1 s
same,PROTHROMBIN TIME,"[2]; male, 0.1 mg/kg, group mean",12.8 s
same,ACTIVATED PARTIAL THROMBOPLASTIN TIME,"[2]; male, 0.75 mg/kg, group mean",38.7 s
same,PROTHROMBIN TIME,"[2]; male, 0.75 mg/kg, group mean",13.3 s
same,"Aβ production (Aβ1-42, Aβ1-40)",Aβ production,concentration-dependent reduction of Aβ production
same,MCH,"Hematology, day 15; anatabine 0.1 mg/kg, individual animals B1-B10 (M, F)",21.9 UUG and 21.8 UUG
same,MCH,"Hematology, day 15; [6]",20.3 UUG and 21 UUG and 22 UUG and 19.9 UUG
same,MCHC,"Hematology, day 15; [6]",34.2% and 34.3%
same,EOSINOPHIL,"Hematology, day 15; female, 0.1 mg/kg, group mean",0.0%
same,HCT,"Hematology, day 15; female, 0.1 mg/kg, group mean",46.4%
same,LYMPHOCYTE,"Hematology, day 15; female, 0.1 mg/kg, group mean",90.2%
same,MCHC,"Hematology, day 15; female, 0.1 mg/kg, group mean",33.7%
same,MCV,"Hematology, day 15; female, 0.1 mg/kg, group mean",60.0 fL
same,MONOCYTE,"Hematology, day 15; female, 0.1 mg/kg, group mean",1.8%
same,NEUTROPHIL SEG,"Hematology, day 15; female, 0.1 mg/kg, group mean",8.0%
same,PLATELET COUNT,"Hematology, day 15; female, 0.1 mg/kg, group mean",997300 µL⁻¹
same,RBC,"Hematology, day 15; female, 0.1 mg/kg, group mean",7.8e+06 µL⁻¹
same,RETICULOCYTE COUNT,"Hematology, day 15; female, 0.1 mg/kg, group mean",4.5%
same,WBC,"Hematology, day 15; female, 0.1 mg/kg, group mean",9300 µL⁻¹
same,EOSINOPHIL,"Hematology, day 15; female, 0.75 mg/kg, group mean",0.0%
same,HCT,"Hematology, day 15; female, 0.75 mg/kg, group mean",45.2%
same,HGB,"Hematology, day 15; female, 0.75 mg/kg, group mean",15.4 g/dL
same,LYMPHOCYTE,"Hematology, day 15; female, 0.75 mg/kg, group mean",90.6%
same,MCV,"Hematology, day 15; female, 0.75 mg/kg, group mean",59.8 fL
same,MONOCYTE,"Hematology, day 15; female, 0.75 mg/kg, group mean",0.8%
same,NEUTROPHIL SEG,"Hematology, day 15; female, 0.75 mg/kg, group mean",8.6%
same,PLATELET COUNT,"Hematology, day 15; female, 0.75 mg/kg, group mean",1.2696e+06 µL⁻¹
same,RBC,"Hematology, day 15; female, 0.75 mg/kg, group mean",7.5e+06 µL⁻¹
same,RETICULOCYTE COUNT,"Hematology, day 15; female, 0.75 mg/kg, group mean",3.3%
same,WBC,"Hematology, day 15; female, 0.75 mg/kg, group mean",10300 µL⁻¹
same,mean corpuscular volume (MCV) and mean corpuscular hemoglobin (MCH),"Hematology, day 15; females, anatabine […], nicotine 0.75 mg/kg single i.v.","small, but statistically significant decreases"
same,EOSINOPHIL,"Hematology, day 15; male, 0.1 mg/kg, group mean",0.2%
same,HCT,"Hematology, day 15; male, 0.1 mg/kg, group mean",47.1%
same,HGB,"Hematology, day 15; male, 0.1 mg/kg, group mean",15.8 g/dL
same,LYMPHOCYTE,"Hematology, day 15; male, 0.1 mg/kg, group mean",89.2%
same,MCV,"Hematology, day 15; male, 0.1 mg/kg, group mean",63.4 fL
same,MONOCYTE,"Hematology, day 15; male, 0.1 mg/kg, group mean",2.0%
same,NEUTROPHIL SEG,"Hematology, day 15; male, 0.1 mg/kg, group mean",8.6%
same,PLATELET COUNT,"Hematology, day 15; male, 0.1 mg/kg, group mean",1.2486e+06 µL⁻¹
same,RBC,"Hematology, day 15; male, 0.1 mg/kg, group mean",7.4e+06 µL⁻¹
same,RETICULOCYTE COUNT,"Hematology, day 15; male, 0.1 mg/kg, group mean",5.5%
same,WBC,"Hematology, day 15; male, 0.1 mg/kg, group mean",15600 µL⁻¹
same,EOSINOPHIL,"Hematology, day 15; male, 0.75 mg/kg, group mean",0.0%
same,HCT,"Hematology, day 15; male, 0.75 mg/kg, group mean",45.8%
same,LYMPHOCYTE,"Hematology, day 15; male, 0.75 mg/kg, group mean",88.8%
same,MCHC,"Hematology, day 15; male, 0.75 mg/kg, group mean",34.0%
same,MCV,"Hematology, day 15; male, 0.75 mg/kg, group mean",61.4 fL
same,MONOCYTE,"Hematology, day 15; male, 0.75 mg/kg, group mean",1.4%
same,NEUTROPHIL SEG,"Hematology, day 15; male, 0.75 mg/kg, group mean",9.8%
same,PLATELET COUNT,"Hematology, day 15; male, 0.75 mg/kg, group mean",1.3258e+06 µL⁻¹
same,RBC,"Hematology, day 15; male, 0.75 mg/kg, group mean",7.5e+06 µL⁻¹
same,RETICULOCYTE COUNT,"Hematology, day 15; male, 0.75 mg/kg, group mean",4.4%
same,WBC,"Hematology, day 15; male, 0.75 mg/kg, group mean",12100 µL⁻¹
